Measured values as given in patent publication US11534443B2, “Quinazoline compounds, preparation method, use, and pharmaceutical composition thereof” (INSTITUTE OF MATERIA MEDICA, CHINESE ACADEMY OF MEDICAL …, priority 2016, dated 2022).

How the values were obtained:
PI3Kα = PI3Kα (Homo sapiens (Human), UniProt P42336); test: Biochemical evaluation of activity of PI3Kα (Kinase-Glo luminescence kinase assay); details: 25 μM ATP, 50 μM PIP2, 1 h at room temperature
Method: The potency of compounds in the present intention against PI3Kα was assessed by in vitro kinase assay. The kinase activity of PI3Kα was determined by detecting the level of ADP produced in the kinase reaction with luciferase-based luminescence detection.
The Kinase-Glo™ Kinase Assay Kit was purchased from Promega. All assays were performed at room temperature using white OptiPlate™-384 well plate. The PI3Kα kinase was purchased from Invitrogen. The substrate was PIP2 from Invitrogen. The kinase buffer contained 50 mM Hepes (pH 7.5), 3 mM MgCl2, 100 mM NaCl, 1 mM EGTA, 0.03% CHAPS and 2 mM DTT. […] The substrate solution contained 100 μM PIP2 and 50 μM ATP. The test compound was diluted to 10 mM in 100% DMSO and serially diluted three times into ten different concentrations in 100% DMSO. The compound diluted in 100% DMSO was diluted 25-fold in 1×kinase buffer. 2.5 μL of the diluted compound solution and 2.5 μL PI3Kα kinase solution were added to each well of a 384-well plate. The reaction was initiated by addition of 5 μL substrate solution to each well. […] The plate was then covered and the reaction was allowed to proceed for one hour at room temperature, followed by the addition of 10 μL Kinase-Glo™ reagent to each well to stop the reaction.
The percentage of inhibition was calculated as follows: Inhibition %=100−(max−sample RLU)/(max−min)*100
wherein sample RLU was the luminescence reading for a given compound concentration, min was the reading of DMSO control, and max was the reading of the enzyme-free control. The IC50 value was calculated with the XLfit program in Excel.

[1] = test system: human lung cancer cell NCI-H460; test: Tumor cell viability by MTT assay; format: cell-based; details: Homo sapiens, NCI-H460, 96 h
Method: After 24 hours, 100 μL of fresh medium containing different concentrations of test compounds and the corresponding solvent control was added into each well to a final concentration of DMSO less than 0.2%. Six to nine concentration groups were set for each test compound, and three parallel wells were set for each group. The plate was incubated at 5% CO2, 37° C. for 96 hours. 20 μL of freshly prepared PBS solution containing 5 mg/mL MTT was added to each well. The supernatant was discarded after incubation for another 4 hours. 150 μL DMSO was added to each well to dissolve the MTT formazan precipitate. After being mixed by a micro-oscillator, the optical density (OD) was measured at the wavelength of 570 nm, and the tumor cells treated with DMSO were used as a control group.

Sequence of PI3Kα (P42336 whole entry): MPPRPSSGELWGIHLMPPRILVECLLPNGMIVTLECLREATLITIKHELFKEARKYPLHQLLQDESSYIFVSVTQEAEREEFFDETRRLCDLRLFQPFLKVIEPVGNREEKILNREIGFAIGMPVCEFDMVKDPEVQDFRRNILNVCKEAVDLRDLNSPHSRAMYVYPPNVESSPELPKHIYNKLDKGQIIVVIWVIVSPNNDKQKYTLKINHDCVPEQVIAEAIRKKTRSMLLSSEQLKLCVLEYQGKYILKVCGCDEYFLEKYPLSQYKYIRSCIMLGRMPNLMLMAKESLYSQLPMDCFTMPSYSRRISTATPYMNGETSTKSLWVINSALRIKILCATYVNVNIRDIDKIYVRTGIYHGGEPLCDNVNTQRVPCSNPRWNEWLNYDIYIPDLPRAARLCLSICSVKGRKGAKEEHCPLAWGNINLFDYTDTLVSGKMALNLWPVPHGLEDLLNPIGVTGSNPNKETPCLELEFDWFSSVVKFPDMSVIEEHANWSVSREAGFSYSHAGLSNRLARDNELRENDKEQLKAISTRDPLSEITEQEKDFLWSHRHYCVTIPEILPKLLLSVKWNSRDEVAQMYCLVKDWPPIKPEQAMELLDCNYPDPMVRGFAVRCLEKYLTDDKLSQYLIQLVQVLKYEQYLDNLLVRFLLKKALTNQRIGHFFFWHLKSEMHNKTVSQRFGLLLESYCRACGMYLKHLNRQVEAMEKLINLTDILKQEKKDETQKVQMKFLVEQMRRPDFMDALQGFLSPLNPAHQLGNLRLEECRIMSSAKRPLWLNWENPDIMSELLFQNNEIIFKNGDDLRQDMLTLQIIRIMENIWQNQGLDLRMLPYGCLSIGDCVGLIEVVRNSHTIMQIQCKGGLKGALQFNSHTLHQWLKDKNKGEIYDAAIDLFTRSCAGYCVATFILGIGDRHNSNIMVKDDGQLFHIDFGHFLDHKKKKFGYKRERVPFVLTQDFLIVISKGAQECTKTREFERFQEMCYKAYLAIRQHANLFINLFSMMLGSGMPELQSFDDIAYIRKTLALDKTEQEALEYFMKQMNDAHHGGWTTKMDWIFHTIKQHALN
Sequence of PI3Kα (P27986 whole entry partner): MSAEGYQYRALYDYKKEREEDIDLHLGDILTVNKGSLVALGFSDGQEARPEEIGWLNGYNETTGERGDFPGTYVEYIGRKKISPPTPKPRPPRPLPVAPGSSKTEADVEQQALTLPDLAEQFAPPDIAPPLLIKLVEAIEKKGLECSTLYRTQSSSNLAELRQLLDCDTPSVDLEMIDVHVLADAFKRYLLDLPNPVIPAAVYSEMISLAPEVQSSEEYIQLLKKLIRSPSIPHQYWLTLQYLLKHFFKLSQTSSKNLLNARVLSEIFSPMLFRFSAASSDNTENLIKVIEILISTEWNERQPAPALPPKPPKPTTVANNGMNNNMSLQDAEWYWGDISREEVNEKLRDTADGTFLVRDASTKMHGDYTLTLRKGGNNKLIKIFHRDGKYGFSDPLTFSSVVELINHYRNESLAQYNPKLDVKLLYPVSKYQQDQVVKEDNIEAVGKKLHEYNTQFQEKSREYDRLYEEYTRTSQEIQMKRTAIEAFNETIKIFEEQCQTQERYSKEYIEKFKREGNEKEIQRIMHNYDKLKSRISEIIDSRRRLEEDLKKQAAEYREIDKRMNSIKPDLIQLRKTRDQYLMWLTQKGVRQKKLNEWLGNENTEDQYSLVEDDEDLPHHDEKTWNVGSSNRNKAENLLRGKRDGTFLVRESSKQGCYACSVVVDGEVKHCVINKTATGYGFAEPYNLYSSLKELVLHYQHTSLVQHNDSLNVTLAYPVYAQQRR

SMILES	IC50 (PI3Kα)	IC50 [1]
COc1ncc(-c2cc(OCC3CCCO3)c3ncnc(C)c3c2)cc1NS(=O)(=O)c1ccc(F)cc1F (stereo not shown) [Example 60, N-(2-methoxy-5-(4-methyl-8-((tetrahydrofuran-2-yl)methoxy)quinazolin-6-yl)pyridin-3-yl)-2,4-difluorobenzenesulfonamide]	1.3 nM	240 nM
CCNc1nc(C)c2cc(-c3cnc(OC)c(NS(=O)(=O)c4ccc(F)cc4F)c3)cc(OC3CCOCC3)c2n1 [Example 30, N-(5-(2-(ethylamino)-4-methyl-8-((tetrahydro-2H-pyran-4-yl)oxy)quinazolin-6-yl)-2-methoxypyridin-3-yl)-2,4-difluorobenzenesulfonamide]	1.3 nM	240 nM
COc1ncc(-c2cc(OC3CCC(F)(F)CC3)c3nc(N)nc(C)c3c2)cc1NS(=O)(=O)c1ccc(F)cc1F [Example 17, N-(5-(2-amino-8-((4,4-difluorocyclohexyl)oxy)-4-methylquinazolin-6-yl)-2-methoxypyridin-3-yl)-2,4-difluorobenzenesulfonamide]	2.3 nM	83 nM
COc1ncc(-c2cc(OC3CCOCC3)c3ncnc(C)c3c2)cc1NS(=O)(=O)C1CC1 [Example 48, N-(2-methoxy-5-(4-methyl-8-((tetrahydro-2H-pyran-4-yl)oxy)quinazolin-6-yl)pyridin-3-yl)cyclopropanesulfonamide]	2.1 nM	280 nM
COc1ncc(-c2cc(O[C@H]3CCOC3)c3nc(N)nc(C)c3c2)cc1NS(=O)(=O)c1ccc(F)cc1F [Example 11, (S)—N-(5-(2-amino-4-methyl-8-((tetrahydrofuran-3-yl)oxy)quinazolin-6-yl)-2-methoxypyridin-3-yl)-2,4-difluorobenzenesulfonamide]	0.94 nM	94 nM
COc1ncc(-c2cc(OC3CCOC(C)(C)C3)c3ncnc(C)c3c2)cc1NS(=O)(=O)c1ccc(F)cc1F (stereo not shown) [Example 58, N-(5-(8-((2,2-dimethyltetrahydro-2H-pyran-4-yl)oxy)-4-methylquinazolin-6-yl)-2-methoxypyridin-3-yl)-2,4-difluorobenzenesulfonamide]	1 nM	56 nM
COc1ncc(-c2cc(OC3CCN(C)CC3)c3nc(N)nc(C)c3c2)cc1NS(=O)(=O)c1ccc(F)cc1F [Example 15, N-(5-(2-amino-4-methyl-8-((1-methylpiperidin-4-yl)oxy)quinazolin-6-yl)-2-methoxypyridin-3-yl)-2,4-difluorobenzenesulfonamide]	5.5 nM	660 nM
COc1ncc(-c2cc(OC3CCOCC3)c3nc(NCC4CC4)nc(C)c3c2)cc1NS(=O)(=O)c1ccc(F)cc1F [Example 31, N-(5-(2-((cyclopropylmethyl)amino)-4-methyl-8-((tetrahydro-2H-pyran-4-yl)oxy)quinazolin-6-yl)-2-methoxypyridin-3-yl)-2,4-difluorobenzenesulfonamide]	3.8 nM	410 nM
COc1ncc(-c2cc(OCC3CCOCC3)c3ncnc(C)c3c2)cc1NS(=O)(=O)c1ccc(F)cc1F [Example 53, N-(2-methoxy-5-(4-methyl-8-((tetrahydro-2H-pyran-4-yl)methoxy)quinazolin-6-yl)pyridin-3-yl)-2,4-difluorobenzenesulfonamide]	0.73 nM	38 nM
COc1ncc(-c2cc(OC3CCOCC3)c3ncnc(C)c3c2)cc1NS(=O)(=O)c1ccc(Cl)s1 [Example 46, N-(2-methoxy-5-(4-methyl-8-((tetrahydro-2H-pyran-4-yl)oxy)quinazolin-6-yl)pyridin-3-yl)-5-chlorothiophene-2-sulfonamide]	0.7 nM	29 nM
CNc1nc(C)c2cc(-c3cnc(OC)c(NS(=O)(=O)c4ccc(F)cc4Cl)c3)cc(O[C@@H]3CCOC3)c2n1 [Example 33, (R)—N-(2-methoxy-5-(4-methyl-2-(methylamino)-8-((tetrahydrofuran-3-yl)oxy)quinazolin-6-yl)pyridin-3-yl)-2-chloro-4-fluorobenzenesulfonamide]	1.7 nM	100 nM
CNc1nc(C)c2cc(-c3cnc(OC)c(NS(=O)(=O)c4ccc(Cl)s4)c3)cc(O[C@@H]3CCOC3)c2n1 [Example 34, (R)—N-(2-methoxy-5-(4-methyl-2-(methylamino)-8-((tetrahydrofuran-3-yl)oxy)quinazolin-6-yl)pyridin-3-yl)-5-chlorothiophene-2-sulfonamide]	1.6 nM	110 nM
COc1ncc(-c2cc(OCCN(C)C)c3ncnc(C)c3c2)cc1NS(=O)(=O)c1ccc(F)cc1F [Example 67, N-(5-(8-(2-(dimethylamino)ethoxy)-4-methylquinazolin-6-yl)-2-methoxypyridin-3-yl)-2,4-difluorobenzenesulfonamide]	6.1 nM	3500 nM
COc1ncc(-c2cc(OC3CCN(C)CC3)c3ncnc(C)c3c2)cc1NS(=O)(=O)c1ccc(F)cc1F [Example 62, N-(2-methoxy-5-(4-methyl-8-((1-methylpiperidin-4-yl)oxy)quinazolin-6-yl)pyridin-3-yl)-2,4-difluoro-benzenesulfonamide]	2.5 nM	260 nM
COc1ncc(-c2cc(OCCN3CCOCC3)c3nc(N)nc(C)c3c2)cc1NS(=O)(=O)c1ccc(F)cc1F [Example 16, N-(5-(2-amino-4-methyl-8-(2-morpholinoethoxy)quinazolin-6-yl)-2-methoxypyridin-3-yl)-2,4-difluorobenzenesulfonamide]	4.1 nM	1100 nM
CNc1nc(C)c2cc(-c3cnc(OC)c(NS(=O)(=O)c4ccc(F)cc4F)c3)cc(OC3CCOCC3)c2n1 [Example 29, N-(2-methoxy-5-(4-methyl-2-(methylamino)-8-((tetrahydro-2H-pyran-4-yl)oxy)quinazolin-6-yl)pyridin-3-yl)-2,4-difluorobenzenesulfonamide]	1.1 nM	59 nM
COc1ncc(-c2cc(OC3CCOCC3)c3nc(NC(C)=O)nc(C)c3c2)cc1NS(C)(=O)=O [Example 43, N-(6-(6-methoxy-5-(methylsulfonamido)pyridin-3-yl)-4-methyl-8-((tetrahydro-2H-pyran-4-yl)oxy)quinazolin-2-yl)acetamide]	10 nM	4000 nM
CNc1nc(C)c2cc(-c3cnc(OC)c(NS(=O)(=O)c4ccc(F)cc4F)c3)cc(OC3CCCCC3)c2n1 [Example 39, N-(5-(8-(cyclohexyloxy)-4-methyl-2-(methylamino)quinazolin-6-yl)-2-methoxypyridin-3-yl)-2,4-difluorobenzenesulfonamide]	15 nM	1700 nM
COc1ncc(-c2cc(OC3CCOCC3)c3nc(N)nc(C)c3c2)cc1NS(=O)(=O)C1CC1 [Example 6, N-(5-(2-amino-4-methyl-8-((tetrahydro-2H-pyran-4-yl)oxy)quinazolin-6-yl)-2-methoxypyridin-3-yl)cyclopropanesulfonamide]	2.3 nM	930 nM
COc1ncc(-c2cc(O[C@H]3CCOC3)c3ncnc(C)c3c2)cc1NS(=O)(=O)c1ccc(F)cc1F [Example 51, (S)—N-(2-methoxy-5-(4-methyl-8-((tetrahydrofuran-3-yl)oxy)quinazolin-6-yl)pyridin-3-yl)-2,4-difluorobenzenesulfonamide]	0.72 nM	32 nM
Cc1nc(N)nc2c(OC3CCOCC3)cc(-c3cnc(Cl)c(NS(=O)(=O)c4ccc(F)cc4)c3)cc12 [Example 8, N-(5-(2-amino-4-methyl-8-((tetrahydro-2H-pyran-4-yl)oxy)quinazolin-6-yl)-2-chloropyridin-3-yl)-4-fluorobenzenesulfonamide]	1 nM	1200 nM
COc1ncc(-c2cc(O[C@H]3CC[C@H](OC)CC3)c3nc(N)nc(C)c3c2)cc1NS(=O)(=O)c1ccc(F)cc1F (single isomer, unassigned) [Example 18-1, N-(5-(2-amino-8-((4-methoxycyclohexyl)oxy)-4-methylquinazolin-6-yl)-2-methoxypyridin-3-yl)-2,4-difluorobenzenesulfonamide]	1.1 nM	30 nM
Cc1ncc(-c2cc(OC3CCOCC3)c3nc(N)nc(C)c3c2)cc1NS(=O)(=O)c1ccc(F)cc1F [Example 7, N-(5-(2-amino-4-methyl-8-((tetrahydro-2H-pyran-4-yl)oxy)quinazolin-6-yl)-2-methylpyridin-3-yl)-2,4-difluorobenzenesulfonamide]	1.1 nM	2100 nM
